Two molecules from patent publication US20240307390A1, “METHODS AND COMPOSITIONS FOR CANCER TREATMENT BY TARGETING AXL SIGNALING” (Sanford Burnham Prebys Medical Discovery Institute, priority 2023, published 2024) can be followed below.

One experiment relates to FBXO7-EYA2 binding. Put plainly: Co-IP of FBXO7-EYA2 binding in treated cells. Type of experiment: cell-based. The note with it: treatment of cells; data not shown. The protocol:
To gain insight into how FBXO7 maintains mesenchymal phenotypes and immune evasion of cancer cells, protein mass spectrometry was conducted to identify putative interacting proteins (FIG. 2A). Eyes Absent Homolog 2 (EYA2), a co-activator of the SIX family of homeobox transcription factors with Tyr phosphatase activity, was one of the most abundant FBXO7-interacting proteins (FIG. 2B). Immunoprecipitation (IP) and in vitro pull-down assays confirmed that FBXO7 interacted with EYA2, but not directly with co-transcriptional partner SIX1 (FIGS. 2C and 2D). EYA2's transactivation domain (AD, aa1-252) but not EYA domain (ED, aa253-538), which interacts with SIX proteins, was required for FBXO7 interaction (FIG. 2E). FBXO7's F-box motif was dispensable for EYA2 interaction (FIG. 2F).
SCFFBXW7 substrate recognition is generally triggered by GSK3β-mediated phosphorylation of the substrate CPD. Recombinant SCFFBXW7 bound a synthetic peptide corresponding to phosphorylated EYA2 CPD (FIG. 3I). […] To determine if EYA2 degradation was regulated by GSK3β, we first confirmed endogenous GSK3 β interacted with EYA2 in vivo by IP (data not shown). […] GSK3β stimulated SCFFBXW7-mediated polyubiquitylation of EYA2 in in vitro ubiquitylation reactions (FIG. 3J). […] Therefore, EYA2 is degraded by SCFFBXW7 in a GSK3β-dependent manner.

A further experiment has as its system EYA2. The experiment is described as follows: EYA2 steady-state level, stability and polyubiquitylation in cells. It is filed as cell-based. The following applies: data not shown. From the text:
Input proteins are shown. […] FIG. 3C represents a putative EYA2 CPD motif across species and compared with other SCF^FBXW7 substrates. […] FIGS. 3F and 3G represent WT and Flag-EYA2-2A stability in MDA-MB-231 cells (FIG. 3F) and endogenous EYA2 in WT and Fbxw7 KO HCT116 cells (FIG. 3G). […] FIG. 3K represents flag-EYA2 stability in MDA-MB-231 cells treated with vehicle (DMSO) or GSK3βi. […] Input proteins shown. […] FIG. 3O represents a model of FBXO7 inhibition of GSK3β-SCFFBXW7-mediated degradation of EYA2.
FBXW7 expression enhanced EYA2 K48-linked but not K63-linked polyubiquitylation (FIG. 3D), indicating SCFFBXW7 regulated EYA2 degradation. IP confirmed EYA2's CPD was required for FBXW7 binding (FIG. 3E). In contrast, FBXO7-EYA2 binding was independent of EYA2's CPD (data not shown). […] In isogenic WT and Fbxw7 knockout (KO) cell lines, the steady-state level and stability of EYA2 increased and polyubiquitylation decreased in the absence of Fbxw7 (FIGS. 3G, 3H).
SCFFBXW7 substrate recognition is generally triggered by GSK3β-mediated phosphorylation of the substrate CPD. Recombinant SCFFBXW7 bound a synthetic peptide corresponding to phosphorylated EYA2 CPD (FIG. 3I). […] To determine if EYA2 degradation was regulated by GSK3β, we first confirmed endogenous GSK3 β interacted with EYA2 in vivo by IP (data not shown). […]

Experiment [1] relates to MDA-MB-231-luc breast tumors. Put plainly: Orthotopic MDA-MB-231-luc breast tumors in immunocompromised mice. Type of experiment: in vivo. The following applies: partially rescued by GAS6 expression. The text has this: (§1) FIGS. 6A and 6B show growth curves (FIG. 6A) and images (FIG. 6B) of control, FBXO7 KD, and FBXO7 KD+GAS6 MDA-MB-231 breast tumors in immunocompromised mice. […] FIGS. 6E and 6F show growth curves (FIG. 6E) and images (FIG. 6F) of control and GAS6-expressing MDA-MB-231-luc breast tumors in immunocompromised mice treated with vehicle or EYA2i.

A further experiment concerns 4T1-luc breast tumors. The experiment is described as follows: 4T1-luc TNBC tumors in syngeneic immunocompetent mice. It is filed as in vivo. The protocol: as §1
Immunocompetent mice bearing 4T1-luc TNBCs were treated with vehicle or EYA2i and isotype IgG (control) or anti-PD-1 antibody (FIG. 6H).

For another experiment, the system named is GAS6 in MDA-MB-231 cells. Put plainly: GAS6 expression and protein in MDA-MB-231 cells. Type of experiment: cell-based, human. The text has this: (§2) FIGS. 4E and 4F represent ChIP analysis of Flag-EYA2 (FIG. 4E) and Flag-SIX1 (FIG. 4F) binding Gas6 promoter in MDA-MB-231 cells transfected with the indicated siRNAs. FIGS. 4G-4I show GAS6 expression in MCF7 cells transfected with indicated vectors (FIG. 4G) and MDA-MB-231 cells expressing indicated shRNAs (FIG. 4H) or treated with vehicle or EYA2i (FIG. 4I). FIGS. 4J and 4K show immunoblots of AXL signaling proteins in MDA-MB-231 cells transfected with control or FBXO7 siRNA (FIG. 4J) or treated with vehicle or EYA2i (FIG. 4K).
To determine how the FBXO7/EYA2-SCFFBXW7 axis maintains mesenchymal and immune evasion phenotypes of cancer cells, chromatin IP sequencing (ChIP-seq) profiles of EYA2 binding in control and FBXO7 KD cells (FIGS. 4A and 4B) were compared. FBXO7 KD decreased EYA2 binding at various genomic regions, including promoters, exons, and introns (data not shown). […] GAS6 was chosen for further analysis because of the link between AXL and mesenchymal phenotypes in TNBC cells. ChIP confirmed that EYA2 and SIX1 bound the Gas6 promoter and binding was diminished by KD of FBXO7 or co-transcriptional counterpart (FIGS. 4E and 4F). EYA2-2A also bound the Gas6 promoter (data not shown), indicating independence of CPD phosphorylation. Further, FBXO7 bound the Gas6 promoter and FBXO7 or ΔF-FBXO7 expression stimulated EYA2 binding (data not shown). […]

The next experiment concerns cancer cells. The experiment is described as follows: Cancer cell viability upon doxorubicin treatment. The following applies: partially rescued by GAS6 expression, FIG. 5H. Type of experiment: cell-based. From the text:
FIGS. 5A and 5B show a gap closure assay of control, FBXO7 KD, and FBXO7 KD+GAS6 MDA-MB-231 (FIG. 5A) and BT-549 (FIG. 5B) cells. FIGS. 5C and 5D show the migration (FIG. 5C) and invasion (FIG. 5D) of indicated control, FBXO7 KD, and FBXO7 KD+GAS6 cells. […] FIGS. 5G and 5H show viabilities of indicated control, FBXO7 KD, or FBXO7 KD+GAS6 (FIG. 5G) or vehicle or EYA2i treated (FIG. 5H) cells upon doxorubicin treatment.
FBXO7 KD diminished mesenchymal cancer cell migration and invasion in in vitro assays (data not shown). These FBXO7 KD effects were largely rescued by GAS6 expression (FIGS. 5A-5D). […] Again, these phenotypes were largely rescued by GAS6 expression (FIGS. 5E and 5F). […] Consistent with an antagonistic role of SCFFBXW7, FBXW7 KD partially rescued the reduced migration of FBXO7 KD cells and enhanced EYA2i sensitivity (data not shown).

A further experiment concerns AXL signaling. Put plainly: Immunoblots of AXL signaling proteins in MDA-MB-231 cells. Type of experiment: cell-based, human. The note with it: FIG. 4K.
Excerpt: as §2
In line with the role of GAS6 as an AXL ligand, FBXO7 KD decreased total AXL and phospho-AXLTyr702 and decreased AXL surface expression (FIGS. 4J and 4M), indicating inhibition of AXL signaling. […] GAS6 expression rescued the decreased total and phospho-AXLTyr702 in FBXO7 KD cells (FIG. 4L). Consistent with a role of SCFFBXW7 in antagonizing FBXO7 functions, FBXW7 KD rescued the decreased GAS6 and attenuated AXL signaling in FBXO7 KD cells (data not shown). […] Expression of proinflammatory cytokine suppressor and AXL signaling effector SOCS1 partially rescued the increased IFNα/β, CXCL9/10, and HLA-A/B induced by FBXO7 KD (FIG. 4O). Further, GAS6 expression rescued the increased HLA-A/B/C surface expression on FBXO7 KD cells (data not shown).

The test system of experiment [2] is mesenchymal and immune-stimulatory genes, cell morphology. Put plainly: Gene expression and cell morphology after EYA2 Tyr phosphatase inhibitor treatment. Type of experiment: cell-based. The following applies: similar to EYA2 KD (flat, cuboidal morphology, decreased mesenchymal, induced immune-stimulatory genes); data not shown. The text has this:
EYA2 KD induced a flat, cuboidal morphology, decreased mesenchymal gene expression, and induced immune-stimulatory genes (FIGS. 2G-2I), phenocopying FBXO7 KD. […] Expression of WT EYA2, but not Tyr phosphatase mutant EYA2D274N or SIX binding mutant EYA2A532R, largely rescued the decreased mesenchymal and increased immune-stimulatory genes in FBXO7 KD cells (data not shown).

For the molecule `NS(=O)(=O)OC[C@@H]1C[C@@H](n2ccc3c(N[C@H]4CCc5ccccc54)ncnc32)C[C@@H]1O` [MLN4924], in the experiment on FBXO7-EYA2 binding, the FBXO7-EYA2 binding result is “did not disrupt FBXO7-EYA2 binding”. Further, the EYA2 levels result in the experiment on EYA2 is “increased EYA2 levels”.
For `O=C(N/N=C/c1ccc(Sc2ccccn2)o1)c1cccc(F)c1` [EYA2i, MLS000544460], the lung metastases entry in experiment [1] (MDA-MB-231-luc) is recorded as “diminished”. For the same molecule, in experiment [1] (orthotopic MDA-MB-231-luc breast tumors), the “tumor cell autonomous growth” value is “diminished”. Also, the “intertumoral infiltration of CD8+T and NK cells” value in the experiment on 4T1-luc breast tumors (flow cytometric and IHC analyses of 4T1-luc tumors) is reported as “stimulated”. The “H-2Kd MHC class I alloantigen surface expression on 4T1-luc tumor cells” value in the experiment on 4T1-luc breast tumors (flow cytometry, FIG. 6L) is on record as “increased”. Besides, the “4T1-luc tumor growth / antitumor response” value in the experiment on 4T1-luc breast tumors (immunocompetent mice, FIGS. 6H and 6I) is “modestly reduced”. The “total and secreted GAS6 protein” value in the experiment with GAS6 in MDA-MB-231 cells (data not shown) is “decreased total and secreted GAS6 protein”. Further, in the experiment with GAS6 in MDA-MB-231 cells (mesenchymal MDA-MB-231 cells, FIG. 4I), the GAS6 expression result is given as “decreased GAS6 expression”. In addition, the “sensitivity of cancer cells to doxorubicin treatment” value in the experiment with cancer cells is listed as “sensitized cancer cells to doxorubicin treatment”. Also, in the experiment on AXL signaling, the AXL signaling entry is given as “suppressed AXL signaling”. Also, the “effects on gene expression and cell morphology” value in experiment [2] is “induced similar effects on gene expression and cell morphology”.
